Measurements as given in patent US20180099931A1 (AbbVie S.à.r.l., priority 2016, published 2018).
Read-outs that look alike come from different tables or passages of the source.

Target: T1, F508delCFTR (Homo sapiens, UniProt P13569, DEL508-508)
T1 construct: expressed in transfected cells; host or cells: CFBE41o- human lung-derived epithelial cells (CFBE4lo-F508delCFTR-HRP), doxycycline-inducible
Assay: Cell Surface Expression-Horse Radish Peroxidase (CSE-HRP) Assay;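 on Maximum % activity (with co-corrector): co-corrector and positive control are both the same reference corrector at 2 µM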;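 on Maximum % activity (without co-corrector): percent of the 2 µM on-plate positive control corrector response above DMSO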
Format: cell-based
Settings: for Emax / Maximum % activity (with co-corrector): maximum at any tested concentration, normalized to on-plate positive control; for Emax: read-out: Maximum % activity (without co-corrector)

[1] = test compound without co-corrector
[2] = test compound without co-corrector, read-out: EC50 (without co-corrector)
[3] = with co-corrector (2 μM of 3-[(2R,4R)-4-({[1-(2,2-difluoro-1,3-benzodioxol-5-yl)cyclopropyl]carbonyl}amino)-7-methoxy-3,4-dihydro-2H-chromen-2-yl]benzoic acid)
[4] = with co-corrector (2 μM of 3-[(2R,4R)-4-({[1-(2,2-difluoro-1,3-benzodioxol-5-yl)cyclopropyl]carbonyl}amino)-7-methoxy-3,4-dihydro-2H-chromen-2-yl]benzoic acid), read-out: EC50 (with co-corrector)

T1 sequence (P13569 with tags, fused parts or gaps DEL508-508): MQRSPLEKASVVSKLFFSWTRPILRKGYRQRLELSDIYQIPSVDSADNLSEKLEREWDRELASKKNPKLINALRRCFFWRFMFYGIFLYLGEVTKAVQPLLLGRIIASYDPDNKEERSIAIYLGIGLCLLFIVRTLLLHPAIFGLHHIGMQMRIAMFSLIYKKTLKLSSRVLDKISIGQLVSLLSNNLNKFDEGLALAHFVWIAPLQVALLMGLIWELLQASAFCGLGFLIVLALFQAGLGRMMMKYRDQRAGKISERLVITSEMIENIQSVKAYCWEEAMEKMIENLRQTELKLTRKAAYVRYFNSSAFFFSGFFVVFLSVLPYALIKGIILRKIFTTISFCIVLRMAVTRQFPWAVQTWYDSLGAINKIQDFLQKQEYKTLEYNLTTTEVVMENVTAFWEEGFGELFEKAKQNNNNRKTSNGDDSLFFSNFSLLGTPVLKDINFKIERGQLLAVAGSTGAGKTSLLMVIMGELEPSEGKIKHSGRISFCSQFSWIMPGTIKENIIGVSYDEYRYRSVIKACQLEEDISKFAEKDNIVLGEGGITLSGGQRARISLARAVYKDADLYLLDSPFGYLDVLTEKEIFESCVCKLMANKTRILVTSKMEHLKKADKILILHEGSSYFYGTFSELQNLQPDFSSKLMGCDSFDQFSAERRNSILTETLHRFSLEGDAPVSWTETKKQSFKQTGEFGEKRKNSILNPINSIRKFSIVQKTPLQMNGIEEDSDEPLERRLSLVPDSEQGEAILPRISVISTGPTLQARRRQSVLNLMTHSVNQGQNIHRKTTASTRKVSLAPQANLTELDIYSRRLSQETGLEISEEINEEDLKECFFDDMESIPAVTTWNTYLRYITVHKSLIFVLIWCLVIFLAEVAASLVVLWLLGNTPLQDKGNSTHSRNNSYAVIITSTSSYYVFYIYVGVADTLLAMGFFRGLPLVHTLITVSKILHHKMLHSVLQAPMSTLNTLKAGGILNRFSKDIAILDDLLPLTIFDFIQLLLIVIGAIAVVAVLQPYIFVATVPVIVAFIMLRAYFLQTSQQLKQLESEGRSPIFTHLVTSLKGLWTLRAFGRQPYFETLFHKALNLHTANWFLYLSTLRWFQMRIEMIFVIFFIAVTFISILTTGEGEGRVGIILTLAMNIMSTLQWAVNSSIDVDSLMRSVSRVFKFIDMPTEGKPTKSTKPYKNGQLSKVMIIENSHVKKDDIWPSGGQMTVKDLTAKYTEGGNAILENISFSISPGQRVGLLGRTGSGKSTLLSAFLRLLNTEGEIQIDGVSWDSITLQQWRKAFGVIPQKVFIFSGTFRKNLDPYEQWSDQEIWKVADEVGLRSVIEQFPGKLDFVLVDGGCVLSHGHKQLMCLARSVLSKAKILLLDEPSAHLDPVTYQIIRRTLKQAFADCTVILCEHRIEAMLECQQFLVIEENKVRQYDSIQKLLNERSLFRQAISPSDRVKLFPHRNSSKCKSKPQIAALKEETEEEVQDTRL

Compound | Emax [1] [%] | EC50 [2] [µM] | Maximum % activity (with co-corrector) [3] | EC50 [4] [µM] | Maximum % activity (with co-corrector) (with co-corrector (2 μM))
CC(C)(C)[C@@H]1[C@@H](NCc2cc(C(F)(F)F)cnc2N)[C@@H](c2ccccc2)N(C(=O)C2CCCCC2)[C@H]1C(=O)O (racemic) [III-74] | < 100 | > 10 | ++ (≥150 and <350) | 1 to 10 | –
COc1cccc([C@H]2[C@@H](Nc3cccc(OC(F)F)n3)[C@H](C(C)(C)C)[C@@H](C(=O)O)N2C(=O)C2(C)CCCOC2)n1 (mixture of isomers) [III-76] | < 100 | > 10 | ++ (≥150 and <350) | 1 to 10 | –
COc1ccc(C(F)(F)F)cc1CN[C@H]1[C@H](C(C)(C)C)[C@@H](C(=O)O)N(C(=O)C2(C)CCCOC2)[C@H]1c1ccccc1N(C)C (mixture of isomers) [III-77] | < 100 | 1 to 10 | +++ (≥350) | 1 to 10 | –
CC(C)(C)[C@@H]1[C@@H](NCc2cc(S(C)(=O)=O)ccc2O)[C@@H](c2ccccc2)N(C(=O)C2CCCCC2)[C@H]1C(=O)O (racemic) [III-79] | < 100 | > 10 | + (<150) | > 10 | –
COCCOc1ncc(C(F)(F)F)cc1CN[C@@H]1[C@@H](C(C)(C)C)[C@H](C(=O)O)N(C(=O)C2CCCCC2)[C@@H]1c1ccccc1 (racemic) [III-80] | < 100 | > 10 | ++ (≥150 and <350) | 1 to 10 | –
COc1ncc(C(F)(F)F)cc1CN[C@@H]1[C@@H](C(C)(C)C)[C@H](C(=O)O)N(C(=O)C2CCCCC2)[C@@H]1c1ccccc1 (racemic) [III-81] | 100 to 200 | 1 to 10 | +++ (≥350) | 1 to 10 | –
COc1cc(Cl)ccc1CN[C@@H]1[C@@H](C(C)(C)C)[C@H](C(=O)O)N(C(=O)C2CCCCC2)[C@@H]1c1ccccn1 (racemic) [III-82] | < 100 | 1 to 10 | ++ (≥150 and <350) | 1 to 10 | –
CC(C)(C)[C@@H]1[C@@H](NCc2ccccc2C#N)[C@@H](c2ccccc2)N(C(=O)C2CCCCC2)[C@H]1C(=O)O (racemic) [III-83] | < 100 | > 10 | + (<150) | > 10 | –
CC(C)(C)[C@@H]1[C@@H](NCc2cc(C(F)(F)F)ccc2OCCCS(C)(=O)=O)[C@@H](c2ccccc2)N(C(=O)C2CCCCC2)[C@H]1C(=O)O (racemic) [III-84] | < 100 | > 10 | + (<150) | 1 to 10 | –
CC(C)(C)[C@@H]1[C@@H](NCc2cc(C(F)(F)F)ccc2OCCCF)[C@@H](c2ccccc2)N(C(=O)C2CCCCC2)[C@H]1C(=O)O (racemic) [III-85] | < 100 | > 10 | ++ (≥150 and <350) | 1 to 10 | –
CC(C)(C)[C@@H]1[C@@H](NCc2cc(C(F)(F)F)ccc2OCCOC(F)(F)F)[C@@H](c2ccccc2)N(C(=O)C2CCCCC2)[C@H]1C(=O)O (racemic) [III-86] | < 100 | > 10 | ++ (≥150 and <350) | 1 to 10 | –
CC(C)(C)[C@@H]1[C@@H](NCc2cc(C(F)(F)F)cnc2OCCO)[C@@H](c2ccccc2)N(C(=O)C2CCCCC2)[C@H]1C(=O)O (racemic) [III-87] | < 100 | > 10 | ++ (≥150 and <350) | 1 to 10 | –
CO[C@@H](C(=O)N1[C@H](c2cccnc2N(C)C)[C@H](Nc2cc(C(F)(F)F)cc(C)n2)[C@@H](C(C)(C)C)[C@@H]1C(=O)O)c1ccccc1 (racemic) [III-89] | < 100 | > 10 | + (<150) | > 10 | –
CO[C@H](C(=O)N1[C@H](c2cccnc2N(C)C)[C@H](Nc2cc(C(F)(F)F)cc(C)n2)[C@@H](C(C)(C)C)[C@@H]1C(=O)O)c1ccccc1 (racemic) [III-90] | < 100 | > 10 | + (<150) | 1 to 10 | –
COc1ccc(CN[C@@H]2[C@@H](C(C)(C)C)[C@H](C(=O)O)N(C(=O)OC(C)C)[C@@H]2c2ccccc2)c(OC)c1 (racemic) [III-91] | < 100 | 1 to 10 | ++ (≥150 and <350) | 1 to 10 | –
COc1cc(-c2ccccc2)ccc1CN[C@@H]1[C@@H](C(C)(C)C)[C@H](C(=O)O)N(C(=O)OC(C)C)[C@@H]1c1ccccc1 (racemic) [III-92] | < 100 | > 10 | + (<150) | > 10 | –
Cc1cc(C(F)(F)F)cc(N[C@@H]2[C@@H](C(C)(C)C)[C@H](C(=O)O)N(C(=O)OC(C)C)[C@@H]2c2cccnc2N(C)C)n1 (racemic) [III-93] | < 100 | 1 to 10 | ++ (≥150 and <350) | 1 to 10 | –
COc1ccc(Cl)cc1CN[C@@H]1[C@@H](C(C)(C)C)[C@H](C(=O)O)N(C(=O)C2CCCCC2)[C@@H]1c1cccnc1N(C)C (racemic) [III-94] | 100 to 200 | 1 to 10 | – | 1 to 10 | +++ (≥350)
COc1cccc([C@H]2[C@@H](Nc3cc(C(F)(F)F)cc(C)n3)[C@H](C(C)(C)C)[C@@H](C(=O)O)N2C(=O)C2CCCCC2)n1 (racemic) [III-97] | < 100 | 1 to 10 | – | 1 to 10 | ++ (≥150 and <350)
Cc1cc(C(F)(F)F)cc(N[C@@H]2[C@@H](C(C)(C)C)[C@H](C(=O)O)N(C(=O)C3CCC(F)(F)CC3)[C@@H]2c2ccccc2)n1 (racemic) [III-104] | < 100 | > 10 | – | 1 to 10 | ++ (≥150 and <350)
COc1cc(C(F)(F)F)ccc1CN[C@@H]1[C@@H](C(C)(C)C)[C@H](C(=O)O)N(C(=O)C2CCC3(CC2)CC3)[C@@H]1c1ccccc1 (racemic) [III-105] | < 100 | 1 to 10 | – | 1 to 10 | ++ (≥150 and <350)
COc1ccc(C(F)(F)F)c(CN[C@@H]2[C@@H](C(C)(C)C)[C@H](C(=O)O)N(C(=O)C3CCCCC3)[C@@H]2c2ccccc2)c1 (racemic) [III-106] | < 100 | 1 to 10 | – | 1 to 10 | ++ (≥150 and <350)
COc1ccc(C(C)(C)C)cc1CN[C@@H]1[C@@H](C(C)(C)C)[C@H](C(=O)O)N(C(=O)C2CCCCC2)[C@@H]1c1ccccc1 (racemic) [III-107] | > 200 | < 1 | – | < 1 | +++ (≥350)
CC(C)(C)[C@@H]1[C@@H](NCc2cc(F)ccc2S(C)(=O)=O)[C@@H](c2ccccc2)N(C(=O)C2CCCCC2)[C@H]1C(=O)O (racemic) [III-108] | < 100 | > 10 | – | 1 to 10 | + (<150)
CC(C)(C)[C@@H]1[C@@H](NCc2cc(Br)ccc2C#N)[C@@H](c2ccccc2)N(C(=O)C2CCCCC2)[C@H]1C(=O)O (racemic) [III-109] | < 100 | > 10 | – | 1 to 10 | ++ (≥150 and <350)
Cc1cc(C(F)(F)F)cc(N[C@@H]2[C@@H](C(C)(C)C)[C@H](C(=O)O)N(C(=O)[C@H]3C[C@H]4CC[C@@H]3C4)[C@@H]2c2ccccc2)n1 (racemic) [III-110] | < 100 | > 10 | – | 1 to 10 | ++ (≥150 and <350)
COc1cc(Cl)cnc1N[C@@H]1[C@@H](C(C)(C)OC)[C@H](C(=O)O)N(C(=O)C2CCCCC2)[C@@H]1c1ccccc1 (racemic) [III-111] | < 100 | 1 to 10 | – | 1 to 10 | ++ (≥150 and <350)
COc1cc(C(F)(F)F)ccc1CN[C@@H]1[C@@H](C(C)(C)C)[C@H](C(=O)O)N(C(=O)C2COCCO2)[C@@H]1c1ccccc1 (mixture of isomers) [III-113] | < 100 | 1 to 10 | – | 1 to 10 | ++ (≥150 and <350)
